The subject of one assay is PC-9 cells. Kind of assay: MTS assay of living cells, PC-9 cells cultured 72 hours with drug. To be noted: gefitinib at various concentrations, FIG. 5. In kind it is cell-based, human. How it is done: (§1) PC-9 cells or cells obtained by introducing the oncogene, the PDGFRα V561D gene into PC-9 cells in Example 4 were seeded in a 96-well plate. The cells were cultured for 72 hours in medium containing gefitinib at various concentrations, and then living cells were quantified by an MTS assay.
A general note: Tetrazolium assays rely on reduction of a dye to a coloured formazan, in cell work by metabolically active cells.

The subject of assay [1] is PDGFRα V561D gene-introduced cells (PC-9). The assay can be described thus: MTS assay of living cells, PDGFRα V561D gene-introduced PC-9 cells cultured 72 hours with drug. In kind it is cell-based, human. Here is the method: as §1
The cells obtained by introducing the PDGFRα V561D gene into PC-9 cells in Example 4 were seeded in a 96-well plate. The cells were cultured in medium containing a PDGFRα inhibitor, imatinib at various concentrations or medium containing 1 μM gefitinib and imatinib at various concentrations for 72 hours, and then living cells were quantified by the MTS assay.

For `COc1cc2ncnc(Nc3ccc(F)c(Cl)c3)c2cc1OCCCN1CCOCC1` [gefitinib], in the assay with PC-9 cells, the “proliferation of PC-9 cells” value was “inhibited by gefitinib in a dose dependent manner”. Further, the “proliferation of the PDGFRα V561D gene-introduced cells” value in assay [1] (gefitinib at various concentrations, FIG. 5) is “not inhibited”; in assay [1] (in the presence of 1 μM gefitinib (medium with imatinib at various concentrations), FIG. 6), “inhibited in the presence of 1 μM gefitinib”.
As for `Cc1ccc(NC(=O)c2ccc(CN3CCN(C)CC3)cc2)cc1Nc1nccc(-c2cccnc2)n1` [imatinib], the “proliferation of the PDGFRα V561D gene-introduced cells” value in assay [1] (imatinib at various concentrations in the presence of 1 μM gefitinib, FIG. 6) is listed as “inhibited by the PDGFRα inhibitor, imatinib in a dose dependent manner”.

For the origin of these results see patent US9157905B2, “Method for identifying oncogene, method for establishing oncogene-expressing cell, and method of screening oncogene targeting drug” (FUJIREBIO INC., priority 2010, dated 2015).
